# Experimental data as given in ChEMBL document CHEMBL1671811, “Deconstruction of non-nucleoside reverse transcriptase inhibitors of human immunodeficiency virus type 1 for exploration of the optimization landscape of fragments” (J Med Chem, 2011).
# Target: T1, Human immunodeficiency virus type 1 reverse transcriptase (Human immunodeficiency virus 1, UniProt Q72547)
# Test: Inhibition of HIV1 reverse transcriptase
row,IC50,Compound
1,0.0014 µM,Cc1cc(S(N)(=O)=O)ccc1NC(=O)COc1ccc(Cl)cc1C(=O)c1cc(F)cc(C(F)(F)F)c1

# Target: T1, Human immunodeficiency virus type 1 reverse transcriptase
# Test: Binding affinity to HIV1 reverse transcriptase by surface plasmon resonance based biosensor assay
row,Kd,Compound
1,700 µM,NC(=S)NCCc1ccccc1
2,1700 µM,O=C(CSc1nncn1-c1ccccc1)Nc1ccccc1
3,30 µM,NS(=O)(=O)c1ccc(NC(=O)COc2ccc(Cl)cc2)cc1
4,1600 µM,NS(=O)(=O)c1ccc(NC(=O)CSc2nc[nH]n2)cc1
5,800 µM,CC(=O)c1ccccc1OCC(=O)Nc1ccccc1C
6,1100 µM,Cc1ccccc1OCC(=O)Nc1ccc(S(N)(=O)=O)cc1
7,800 µM,Cc1ccc(-n2cnnc2SCC(=O)Nc2ccccc2)cc1
8,1300 µM,NS(=O)(=O)c1ccc(NC(=O)CSc2nncn2-c2ccccc2)cc1
9,6 µM,S=C(NCCc1ccccc1)Nc1ccccn1
10,2 µM,S=C(NCCc1ccccc1)Nc1ccc(Br)cn1
